Measured values as given in US20260232658A1, “AZETIDINYL BENZOXAZOLE COMPOUNDS AND THEIR USE AS MER AND AXL INHIBITORS” (DONG-A ST CO., LTD., priority 2022, published 2026).

Experiments:
human AXL (473-end) = target: T1, human AXL (473-end) (Homo sapiens, UniProt P30530); assay: HTRF kinase activity biochemical assay, AXL; settings: recombinant kinase, 10 uM ATP, 30 minutes pre-incubation; read-out: HTRF AXL IC50;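 further: phosphorylation of a biotinylated tyrosine kinase substrate detected via Eu3+-cryptate anti-TK antibody and streptavidin-XL665, fluorescence read after a 1 h incubation at room temperature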
T1 construct: human AXL (473-end); purchased SignalChem, Canada
T1 sequence (P30530 473-894 limits assumed): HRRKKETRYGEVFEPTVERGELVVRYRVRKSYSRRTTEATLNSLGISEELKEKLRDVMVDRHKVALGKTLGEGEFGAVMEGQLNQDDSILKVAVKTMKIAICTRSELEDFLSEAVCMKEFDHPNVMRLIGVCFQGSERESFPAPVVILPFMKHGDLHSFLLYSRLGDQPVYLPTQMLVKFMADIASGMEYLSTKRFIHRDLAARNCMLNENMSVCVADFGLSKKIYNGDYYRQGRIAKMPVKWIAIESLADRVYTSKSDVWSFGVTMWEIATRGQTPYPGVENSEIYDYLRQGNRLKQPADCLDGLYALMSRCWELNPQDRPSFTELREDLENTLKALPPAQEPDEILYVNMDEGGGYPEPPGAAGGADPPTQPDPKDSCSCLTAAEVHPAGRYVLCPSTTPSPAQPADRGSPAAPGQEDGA

TYRO3 (455-end) = target: T2, TYRO3 (455-end) (Homo sapiens, UniProt Q06418); assay: HTRF kinase activity biochemical assay, TYRO3; settings: recombinant kinase, 10 uM ATP, 30 minutes pre-incubation; read-out: HTRF TYRO IC50;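 further: biotinylated tyrosine kinase substrate phosphorylation detected via streptavidin-XL665 and Eu3+-cryptate anti-phospho antibody time-resolved fluorescence, read after 1 h detection at room temperature, 384-well format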
T2 construct: TYRO3 (455-end); purchased SignalChem, Canada
T2 sequence (Q06418 455-890 limits assumed): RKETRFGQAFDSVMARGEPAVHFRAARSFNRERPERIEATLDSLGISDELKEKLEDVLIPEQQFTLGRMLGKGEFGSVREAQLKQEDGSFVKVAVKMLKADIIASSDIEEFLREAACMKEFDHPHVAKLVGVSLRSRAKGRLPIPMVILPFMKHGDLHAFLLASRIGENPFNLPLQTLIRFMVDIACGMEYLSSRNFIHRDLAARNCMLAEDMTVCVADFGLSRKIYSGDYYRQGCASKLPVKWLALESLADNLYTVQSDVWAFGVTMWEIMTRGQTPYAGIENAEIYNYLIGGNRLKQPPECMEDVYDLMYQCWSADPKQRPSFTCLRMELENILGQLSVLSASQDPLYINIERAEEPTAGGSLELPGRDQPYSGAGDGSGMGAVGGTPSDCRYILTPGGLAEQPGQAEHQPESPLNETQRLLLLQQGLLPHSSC

human MER (528-end) = target: T3, human MER (528-end) (Homo sapiens, UniProt Q12866); assay: HTRF kinase activity biochemical assay, MER; settings: recombinant kinase, 10 uM ATP, 30 minutes pre-incubation; read-out: HTRF MERTK IC50;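 further: phosphorylation of a biotin-tagged tyrosine kinase substrate detected by Eu3+-cryptate antibody and streptavidin-XL665 time-resolved fluorescence, read after 1 h at room temperature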
T3 construct: human MER (528-end); purchased Carnabio, Japan
T3 sequence (Q12866 528-999 limits assumed): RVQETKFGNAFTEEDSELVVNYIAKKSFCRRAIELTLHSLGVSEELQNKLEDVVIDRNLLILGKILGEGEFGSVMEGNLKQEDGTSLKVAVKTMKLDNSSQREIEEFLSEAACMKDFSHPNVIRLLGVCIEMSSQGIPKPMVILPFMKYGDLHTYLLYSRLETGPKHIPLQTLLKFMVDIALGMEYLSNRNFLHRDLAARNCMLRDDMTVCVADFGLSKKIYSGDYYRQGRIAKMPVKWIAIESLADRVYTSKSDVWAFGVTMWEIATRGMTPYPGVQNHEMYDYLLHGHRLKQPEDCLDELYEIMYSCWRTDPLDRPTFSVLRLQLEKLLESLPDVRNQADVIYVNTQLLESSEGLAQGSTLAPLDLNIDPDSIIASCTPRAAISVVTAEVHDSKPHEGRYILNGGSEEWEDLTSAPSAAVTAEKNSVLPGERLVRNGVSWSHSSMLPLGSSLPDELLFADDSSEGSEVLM

IC50 (human AXL (473-end)) | IC50 (TYRO3 (455-end)) | IC50 (human MER (528-end)) | Structure (SMILES)
5 nM | 37 nM | < 1 nM | COC[C@H]1CCCN1C(=O)c1ccc2nc(N3CC(c4cnc(Nc5cnn(C)c5)c(C(N)=O)n4)C3)oc2c1 [Example 64, 6-(1-{6-[(2R)-2-(methoxymethyl)pyrrolidine-1-carbonyl]-1,3-benzoxazol-2-yl}azetidin-3-yl)-3-[(1-methyl-1H-pyrazol-4-yl)amino]pyrazine-2-carboxamide]
25 nM | 2140 nM | 9 nM | Cn1cc(Nc2ncc(C3CN(c4nc5ccc(OCC(O)CO)cc5o4)C3)nc2C(N)=O)cn1 (stereo not drawn) [Example 43, 6-{1-[6-(2,3-dihydroxypropoxy)-1,3-benzoxazol-2-yl]azetidin-3-yl}-3-[(1-methyl-1H-pyrazol-4-yl)amino]pyrazine-2-carboxamide]
5 nM | 53 nM | < 1 nM | Cn1cnc(-c2ccc3nc(N4CC(c5cnc(Nc6cnn(C)c6)c(C(N)=O)n5)C4)oc3c2)c1 [Example 105, 6-{1-[6-(1-methyl-1H-imidazol-4-yl)-1,3-benzoxazol-2-yl]azetidin-3-yl}-3-[(1-methyl-1H-pyrazol-4-yl)amino]pyrazine-2-carboxamide]
3 nM | 190 nM | 1 nM | Cn1cc(Nc2ncc(C3CN(c4nc5ccc(CCCO)cc5o4)C3)nc2C(N)=O)cn1 [Example 32, 6-{1-[6-(3-hydroxypropyl)-1,3-benzoxazol-2-yl]azetidin-3-yl}-3-[(1-methyl-1H-pyrazol-4-yl)amino]pyrazine-2-carboxamide]
1 nM | 100 nM | < 1 nM | Cn1cc(Nc2ncc(C3CN(c4nc5ccc(OCCCc6ccccc6)cc5o4)C3)nc2C(N)=O)cn1 [Example 60, 3-[(1-methyl-1H-pyrazol-4-yl)amino]-6-{1-[6-(3-phenylpropoxy)-1,3-benzoxazol-2-yl]azetidin-3-yl}pyrazine-2-carboxamide]
5900 nM | > 12500 nM | 3710 nM | Cn1cc(Nc2ncc(C3CN(c4nc5ccc(C(=O)O)cc5o4)C3)nc2C(N)=O)cn1 [Example 18A, 2-(3-f{6-carbamoyl-5-[(1-methyl-1H-pyrazol-4-yl)amino]pyrazin-2-yl}azetidin-1-yl)-1,3-benzoxazole-6-carboxylic acid]
< 1 nM | 110 nM | < 1 nM | Cn1cc(Nc2ncc(C3CN(c4nc5ccc(C6CCCC6)cc5o4)C3)nc2C(N)=O)cn1 [Example 10, 6-[1-(6-cyclopentyl-1,3-benzoxazol-2-yl)azetidin-3-yl]-3-[(1-methyl-1H-pyrazol-4-yl)amino]pyrazine-2-carboxamide]
2 nM | 64 nM | < 1 nM | Cn1cc(Nc2ncc(C3CN(c4nc5ccc(OCC6CC(O)C6)cc5o4)C3)nc2C(N)=O)cn1 (stereo not drawn) [Example 42, 6-(1-{6-[(3-hydroxycyclobutyl)methoxy]-1,3-benzoxazol-2-yl}azetidin-3-yl)-3-[(1-methyl-1H-pyrazol-4-yl)amino]pyrazine-2-carboxamide]
6 nM | 680 nM | 3 nM | Cn1cc(Nc2ncc(C3CN(c4nc5ccc(C6CCCCC6)cc5o4)C3)nc2C(N)=O)cn1 [Example 7, 6-[1-(6-cyclohexyl-1,3-benzoxazol-2-yl)azetidin-3-yl]-3-[(1-methyl-1H-pyrazol-4-yl)amino]pyrazine-2-carboxamide]
4 nM | 150 nM | 1 nM | Cn1cc(COc2ccc3nc(N4CC(c5cnc(Nc6cnn(C)c6)c(C(N)=O)n5)C4)oc3c2)cn1 [Example 97, 3-[(1-methyl-1H-pyrazol-4-yl)amino]-6-(1-{6-[(1-methyl-1H-pyrazol-4-yl)methoxy]-1,3-benzoxazol-2-yl}azetidin-3-yl)pyrazine-2-carboxamide]
2 nM | 66 nM | < 1 nM | Cn1cc(Nc2ncc(C3CN(c4nc5ccc(OC6CCCC6O)cc5o4)C3)nc2C(N)=O)cn1 (stereo not drawn) [Example 79, 6-(1-{6-[(2-hydroxycyclopentyl)oxy]-1,3-benzoxazol-2-yl}azetidin-3-yl)-3-[(1-methyl-1H-pyrazol-4-yl)amino]pyrazine-2-carboxamide]
59 nM | 3500 nM | 8 nM | Cn1cc(Nc2ncc(C3CN(c4nc5ccc(OCc6cnn(CCO)c6)cc5o4)C3)nc2C(N)=O)cn1 [Example 104, 6-[1-(6-{[1-(2-hydroxyethyl)-1H-pyrazol-4-yl]methoxy}-1,3-benzoxazol-2-yl)azetidin-3-yl]-3-[(1-methyl-1H-pyrazol-4-yl)amino]pyrazine-2-carboxamide]
2 nM | 44 nM | < 1 nM | Cn1cc(Nc2ncc(C3CN(c4nc5ccc(OCc6cn[nH]c6)cc5o4)C3)nc2C(N)=O)cn1 [Example 93, 3-[(1-methyl-1H-pyrazol-4-yl)amino]-6-(1-{6-[(1H-pyrazol-4-yl)methoxy]-1,3-benzoxazol-2-yl}azetidin-3-yl)pyrazine-2-carboxamide]
14 nM | 490 nM | 8 nM | NC(=O)c1nc(C2CN(c3nc4ccccc4o3)C2)cnc1Nc1cn[nH]c1 [Example 14, 6-[1-(1,3-benzoxazol-2-yl)azetidin-3-yl]-3-[(1H-pyrazol-4-yl)amino]pyrazine-2-carboxamide]
7 nM | 280 nM | 2 nM | Cn1cc(Nc2ncc(C3CN(c4nc5ccc(-c6ccccc6)cc5o4)C3)nc2C(N)=O)cn1 [Example 8, 3-[(1-methyl-1H-pyrazol-4-yl)amino]-6-[1-(6-phenyl-1,3-benzoxazol-2-yl)azetidin-3-yl]pyrazine-2-carboxamide]
1.8 nM | 280 nM | < 1 nM | Cn1cc(Nc2ccc(C3CN(c4nc5ccc(OCCC(C)(C)OC(=O)CN)cc5o4)C3)nc2C(N)=O)cn1 [Example 110, 4-{[2-(3-{6-carbamoyl-5-[(1-methyl-1H-pyrazol-4-yl)amino]pyridin-2-yl}azetidin-1-yl)-1,3-benzoxazol-6-yl]oxy}-2-methylbutan-2-yl glycinate]
33 nM | 2070 nM | 14 nM | Cn1cc(Nc2ccc(C3CN(c4nc5ccc(O)cc5o4)C3)nc2C(N)=O)cn1 [Example 84A, 6-[1-(6-hydroxy-1,3-benzoxazol-2-yl)azetidin-3-yl]-3-[(1-methyl-1H-pyrazol-4-yl)amino]pyridine-2-carboxamide]
5 nM | 74 nM | 2 nM | Cn1cc(Nc2ncc(C3CN(c4nc5ccc(C6=CCOC6)cc5o4)C3)nc2C(N)=O)cn1 [Example 15A, 6-{1-[6-(2,5-dihydrofuran-3-yl)-1,3-benzoxazol-2-yl]azetidin-3-yl}-3-[(1-methyl-1H-pyrazol-4-yl)amino]pyrazine-2-carboxamide]
69 nM | 5860 nM | 52 nM | Cn1cc(Nc2ncc(C3CN(c4nc5ccc(OCC(C)(C)OP(=O)(O)O)cc5o4)C3)nc2C(N)=O)cn1 [Example 112, 1-{[2-(3-{6-carbamoyl-5-[(1-methyl-1H-pyrazol-4-yl)amino]pyrazin-2-yl}azetidin-1-yl)-1,3-benzoxazol-6-yl]oxy}-2-methylpropan-2-yl dihydrogen phosphate]

Structure (SMILES) | IC50 (human AXL (473-end)) | IC50 (TYRO3 (455-end)) | IC50 (human MER (528-end))
Cn1cc(Nc2ccc(C3CN(c4nc5ccc(OCCC(C)(C)O)cc5o4)C3)nc2C(N)=O)cn1 [Example 84, 6-{1-[6-(3-hydroxy-3-methylbutoxy)-1,3-benzoxazol-2-yl]azetidin-3-yl}-3-[(1-methyl-1H-pyrazol-4-yl)amino]pyridine-2-carboxamide] | 7 nM | 1370 nM | 2 nM
